Experimental data taken from PubChem BioAssay AID1259408 (Genetic Toxicology Data Bank (GENE-TOX), 2018).
The source made the active and inactive calls. How the calls were made is not given here. Bridge positions count the residues as written; N and C are the ends. Square brackets hold non-standard residues; d marks the D form. Peptide text beside a SMILES is read from it. * marks the point of attachment. ξ: configuration not given here. Heptanoyl(5-Me) = CCC(C)CCCC(=O)*; ξThr(3R) = C[C@@H](O)C(N)C(=O)O; dDab = NCC[C@@H](N)C(=O)O; Dab = NCC[C@H](N)C(=O)O

Test system: GENE-TOX genotoxicity assays, various organisms and cells
Assay: GENE-TOX mutagenicity studies
[1] = Species/Cell Type: Bacillus subtilis (H17 vs M45), Assay Type: Rec-assay, spot test, DNA effects (bacterial DNA repair), Assay Code: REWT, Evaluation Type: Evaluation A (Pre-1980)
[2] = Species/Cell Type: Mammalian polychromatic erythrocytes, Assay Type: Micronucleus test, chromosome aberrations, Assay Code: MNTT, Evaluation Type: Evaluation A (Pre-1980)
[3] = Species/Cell Type: Salmonella typhimurium (one or more of the five standard strains: TA98, TA100, TA1535, TA1537, and TA1538), Assay Type: Histidine reverse gene mutation, Ames assay, Assay Code: SAL+, Evaluation Type: Evaluation A (Pre-1980)
[4] = Species/Cell Type: Allium cepa, Assay Type: Chromosome aberrations, Assay Code: ALC+, Evaluation Type: Evaluation A (Pre-1980)
[5] = Species/Cell Type: Arabidopsis species, Assay Type: Gene mutation, Assay Code: ARM-, Evaluation Type: Evaluation A (Pre-1980)
[6] = Species/Cell Type: Human lymphocytes, Assay Type: Sister-chromatid exchange (SCE) in vitro, Assay Code: SCLT, Evaluation Type: Evaluation B (Post-1980)
[7] = Species/Cell Type: Human, Assay Type: Sister-chromatid exchange (SCE) in vitro, Assay Code: SC1-, Evaluation Type: Evaluation B (Post-1980)
[8] = Species/Cell Type: Salmonella typhimurium (one or more of the five standard strains: TA98, TA100, TA1535, TA1537, and TA1538), Assay Type: Histidine reverse gene mutation, Ames assay, Assay Code: SALT, Evaluation Type: Evaluation A (Pre-1980)
[9] = Species/Cell Type: Salmonella typhimurium (one or more of the five standard strains: TA98, TA100, TA1535, TA1537, and TA1538), Assay Type: Histidine reverse gene mutation, Ames assay, Assay Code: SAL+*, Activation: With metabolic activation, Evaluation Type: Evaluation A (Pre-1980)
[10] = Species/Cell Type: Mammalian polychromatic erythrocytes, Assay Type: Micronucleus test, chromosome aberrations, Assay Code: MNT-, Evaluation Type: Evaluation B (Post-1980)

## COP(=O)(OC)C(O)C(Cl)(Cl)Cl (centres undefined)
[1]
  mutagenic call: no conclusion
Species/Cell Type: Drosophila melanogaster, Assay Type: Sex-linked recessive lethal gene mutation, Assay Code: SRL-, Evaluation Type: Evaluation A (Pre-1980)
  mutagenic call: inactive; negative
Species/Cell Type: Escherichia coli WP2 UVRA, Assay Type: Tryptophan reverse gene mutation, Assay Code: WPU+D, Dose Response: With dose response, Evaluation Type: Evaluation A (Pre-1980)
  mutagenic call: active; positive
Species/Cell Type: Escherichia coli polA (W3119 vs P3478), Assay Type: Rec-assay, DNA effects (bacterial DNA repair), Assay Code: RE1T, Evaluation Type: Evaluation A (Pre-1980)
  mutagenic call: no conclusion
Species/Cell Type: Human diploid fibroblasts, Assay Type: Unscheduled DNA synthesis (UDS) in vitro, DNA effects, Assay Code: UDH+/-*, Activation: With metabolic activation, Evaluation Type: Evaluation A (Pre-1980)
  mutagenic call: inactive; positive without activation, negative with activation
[2]
  mutagenic call: no conclusion
Species/Cell Type: Nonhuman, Assay Type: Sister-chromatid exchange (SCE) in vitro, Assay Code: SC2+D*, Activation: With metabolic activation, Dose Response: With dose response, Evaluation Type: Evaluation B (Post-1980)
  mutagenic call: active; positive
Species/Cell Type: Saccharomyces cerevisiae, Assay Type: Mitotic recombination or gene conversion, Assay Code: YEH+, Evaluation Type: Evaluation A (Pre-1980)
  mutagenic call: active; positive
[3]
  mutagenic call: active; positive
Species/Cell Type: Salmonella typhimurium, Assay Type: Forward and reverse gene mutation, body fluid assay, Assay Code: BFU+, Evaluation Type: Evaluation A (Pre-1980)
  mutagenic call: active; positive

## O=[N+]([O-])c1ccc(O)c([N+](=O)[O-])c1
[4]
  mutagenic call: active; positive
[5]
  mutagenic call: inactive; negative

## c1ccc2c(c1)ccc1nc3c(ccc4ccccc43)cc12
Species/Cell Type: Fischer rat embryo (RLV/1706) cells, Assay Type: Cell transformation, viral enhanced, Assay Code: CTR+, Evaluation Type: Evaluation A (Pre-1980)
  mutagenic call: active; positive
Species/Cell Type: Nonhuman, Assay Type: In vivo carcinogenicity studies, Assay Code: CCG+, Evaluation Type: Evaluation A (Pre-1980)
  call: active; positive

## Cn1c(=O)c2c(ncn2CC(O)CO)n(C)c1=O (centres undefined)
[6]
  mutagenic call: no conclusion
Species/Cell Type: Human, Assay Type: Sister-chromatid exchange (SCE) in vitro, Assay Code: SC1T, Evaluation Type: Evaluation B (Post-1980)
  mutagenic call: no conclusion

## CCC(C)CCCC(=O)N[C@@H](CCN)C(=O)N[C@H](C(=O)N[C@@H](CCN)C(=O)N[C@H]1CCNC(=O)C([C@@H](C)O)NC(=O)[C@@H](CCN)NC(=O)[C@H](CCN)NC(=O)[C@@H](CC(C)C)NC(=O)[C@@H](CC(C)C)NC(=O)[C@H](CCN)NC1=O)[C@@H](C)O (stereo partly drawn) ({Heptanoyl(5-Me)}-[Dab]T[Dab][Dab][Dab][dL][dL][Dab][dDab][ξThr(3R)]; lactam 4-C)
Species/Cell Type: Escherichia coli polA (W3119 vs P3478), Assay Type: Rec-assay, DNA effects (bacterial DNA repair), Assay Code: RE1-, Evaluation Type: Evaluation A (Pre-1980)
  mutagenic call: inactive; negative
Species/Cell Type: Human lymphocytes, Assay Type: Sister-chromatid exchange (SCE) in vitro, Assay Code: SCL-, Evaluation Type: Evaluation B (Post-1980)
  mutagenic call: inactive; negative
[7]
  mutagenic call: inactive; negative

## OCC(F)(F)F
[8]
  mutagenic call: no conclusion

## Nc1nc(-c2cccc3ccccc23)cs1
Species/Cell Type: Salmonella typhimurium, Assay Type: Forward and reverse gene mutation, host-mediated assay, Assay Code: HMAT, Evaluation Type: Evaluation A (Pre-1980)
  mutagenic call: no conclusion

## CC(=O)Oc1cc(OC(C)=O)c2c(=O)c(OC(C)=O)c(-c3ccc(OC(C)=O)c(OC(C)=O)c3)oc2c1
[9]
  mutagenic call: active; positive

## O=C(O)CNC(=O)c1ccccc1
Species/Cell Type: Escherichia coli WP2, Assay Type: Tryptophan reverse gene mutation, Assay Code: WP2-*, Activation: With metabolic activation, Evaluation Type: Evaluation A (Pre-1980)
  mutagenic call: inactive; negative
Species/Cell Type: Escherichia coli WP2 UVRA, Assay Type: Tryptophan reverse gene mutation, Assay Code: WPU-*, Activation: With metabolic activation, Evaluation Type: Evaluation A (Pre-1980)
  mutagenic call: inactive; negative

## C[C@@H]1[C@H](O)[C@@H](C)/C=C/C=C/CC/C=C/C=C/C=C/C=C/C(O[C@H]2O[C@H](C)[C@@H](O)[C@H](N)[C@@H]2O)CC2O[C@](O)(CC(O)C(O)CCC(O)CC(O)CC(O)CC(=O)O[C@H]1C)CC(O)C2C(=O)O (some centres undefined)
Species/Cell Type: Neurospora crassa, Assay Type: Aneuploidy, chromosome aberrations, Assay Code: NEN-, Evaluation Type: Evaluation A (Pre-1980)
  mutagenic call: inactive; negative

## O=S(=O)(O)c1ccc(N=Nc2c(O)ccc3ccccc23)cc1
[1]
  mutagenic call: no conclusion
[8]
  mutagenic call: no conclusion

## C=C(C)CC(C)(C)C
[8]
  mutagenic call: no conclusion

## O=S=O
Species/Cell Type: Human lymphocytes, Assay Type: Sister-chromatid exchange (SCE) in vivo, Assay Code: SCY+, Evaluation Type: Evaluation B (Post-1980)
  mutagenic call: active; positive
Species/Cell Type: Tradescantia species, Assay Type: Chromosome aberrations, Assay Code: TRC+, Evaluation Type: Evaluation A (Pre-1980)
  mutagenic call: active; positive
Species/Cell Type: Tradescantia species, Assay Type: Gene mutation, Assay Code: TRM+D, Dose Response: With dose response, Evaluation Type: Evaluation A (Pre-1980)
  mutagenic call: active; positive

## CCN(CC)C(=O)[C@@H]1C=C2c3cccc4[nH]cc(c34)C[C@H]2N(C)C1
[4]
  mutagenic call: active; positive
[5]
  mutagenic call: inactive; negative
Species/Cell Type: Drosophila melanogaster, Assay Type: Aneuploidy, partial sex chromosome loss, chromosome aberrations, Assay Code: DAP+M, Evaluation Type: Evaluation A (Pre-1980)
  mutagenic call: active; positive
Species/Cell Type: Drosophila melanogaster, Assay Type: Aneuploidy, sex chromosome gain, chromosome aberrations, Assay Code: DAG+M, Evaluation Type: Evaluation A (Pre-1980)
  mutagenic call: active; positive
Species/Cell Type: Drosophila melanogaster, Assay Type: Aneuploidy, whole sex chromosome loss, chromosome aberrations, Assay Code: DAC+M, Evaluation Type: Evaluation A (Pre-1980)
  mutagenic call: active; positive
Species/Cell Type: Drosophila melanogaster, Assay Type: Sex-linked recessive lethal gene mutation, Assay Code: SRL+, Evaluation Type: Evaluation A (Pre-1980)
  mutagenic call: active; positive
Species/Cell Type: Drosophila melanogaster, Sex: Male, Assay Type: Heritable translocation test, chromosome aberrations, Assay Code: DHT-, Evaluation Type: Evaluation A (Pre-1980)
  mutagenic call: inactive; negative
Species/Cell Type: Hordeum vulgare (barley), Assay Type: Chromosome aberrations, Assay Code: HOC+, Evaluation Type: Evaluation A (Pre-1980)
  mutagenic call: active; positive
Species/Cell Type: Human lymphocytes or leukocytes, Assay Type: Chromosome aberrations in vitro, Assay Code: CY7-, Evaluation Type: Evaluation A (Pre-1980)
  mutagenic call: inactive; negative
Species/Cell Type: Human lymphocytes or leukocytes, Assay Type: Chromosome aberrations in vivo, Assay Code: CY8T, Evaluation Type: Evaluation A (Pre-1980)
  mutagenic call: no conclusion
Species/Cell Type: Mammalian germ cells, Sex: Male, Assay Type: Chromosome aberrations in vivo, Assay Code: CY9-, Evaluation Type: Evaluation A (Pre-1980)
  mutagenic call: inactive; negative
Species/Cell Type: Mammalian oocytes or early embryo, Assay Type: Chromosome aberrations in vivo, Assay Code: CYO-, Evaluation Type: Evaluation A (Pre-1980)
  mutagenic call: inactive; negative
[2]
  mutagenic call: no conclusion
Species/Cell Type: Nonhuman, Assay Type: Chromosome aberrations in vitro, Assay Code: CY&-, Evaluation Type: Evaluation A (Pre-1980)
  mutagenic call: inactive; negative
Species/Cell Type: Rodents, Sex: Male, Assay Type: Dominant lethal test, Assay Code: DLT-, Evaluation Type: Evaluation A (Pre-1980)
  mutagenic call: inactive; negative
Species/Cell Type: Vicia faba, Assay Type: Chromosome aberrations, Assay Code: VIC-, Evaluation Type: Evaluation A (Pre-1980)
  mutagenic call: inactive; negative

## Cc1ccc(O)cc1
Species/Cell Type: Allium cepa, Assay Type: Chromosome aberrations, Assay Code: ALCT, Evaluation Type: Evaluation A (Pre-1980)
  mutagenic call: no conclusion
[6]
  mutagenic call: no conclusion
[7]
  mutagenic call: inactive; negative
Species/Cell Type: Nonhuman, Assay Type: Sister-chromatid exchange (SCE) in vivo, Assay Code: SC3T, Evaluation Type: Evaluation B (Post-1980)
  mutagenic call: no conclusion

## NC(=O)/C=C/c1ccc([N+](=O)[O-])o1
Species/Cell Type: Human diploid fibroblasts, Assay Type: Unscheduled DNA synthesis (UDS) in vitro, DNA effects, Assay Code: UDH+, Evaluation Type: Evaluation A (Pre-1980)
  mutagenic call: active; positive
[3]
  mutagenic call: active; positive

## C[C@@H]1O[C@@H](OC[C@H]2O[C@@H](Oc3c(-c4ccc(OCCO)c(OCCO)c4)oc4cc(OCCO)cc(O)c4c3=O)[C@H](O)[C@@H](O)[C@@H]2O)[C@H](O)[C@H](O)[C@H]1O
[10]
  mutagenic call: inactive; negative

## COc1cc(N=Nc2ccccc2)ccc1[N+](=O)[O-]
[3]
  mutagenic call: active; positive

## Cc1cc(C)[o+]c(C)c1
[4]
  mutagenic call: active; positive

## C1=CC2c3ccccc3OC2O1 (centres undefined)
[9]
  mutagenic call: active; positive

## FC(F)(Cl)Br
[10]
  mutagenic call: inactive; negative

## CC(C)C[C@H](NC(=O)CNC(=O)[C@H](Cc1ccc(O)cc1)NC(=O)[C@H](CO)NC(=O)[C@H](Cc1c[nH]c2ccccc12)NC(=O)[C@H](Cc1cnc[nH]1)NC(=O)[C@@H]1CCC(=O)N1)C(=O)N[C@@H](CCCN=C(N)N)C(=O)N1CCC[C@H]1C(=O)NCC(N)=O
Species/Cell Type: Human, Sex: Male, Assay Type: Sperm morphology, Assay Code: SPHT, Evaluation Type: Evaluation A (Pre-1980)
  mutagenic call: no conclusion
